Results: patent US20220280644A1, “"TRPswitch" - A STEP FUNCTION CHEMO-OPTOGENETIC LIGAND” (UNIVERSITY OF UTAH RESEARCH FOUNDATION, priority 2019, published 2022)

What was measured:
[1] = test system: wild-type zebrafish larvae; conditions: reference [23]; cited from earlier work
[2] = test system: wild-type zebrafish larvae; experiment: Behavioral assay: light-induced motion response of wild-type larvae; format: in vivo, Zebrafish (Danio rerio); conditions: DABCO, singlet oxygen quencher
Protocol: A total of 1,000 compounds were selected from the ChemBridge Corp. catalog. Compounds were dissolved in DMSO at a stock concentration of 1 μg/μL (˜1.5 mM). The library was screened at a 1:100 dilution in E3 solution for a final concentration of ˜15 μM. Negative controls were treated with an equal volume of DMSO. Groups of 3 larvae at 3 days post fertilization (dpf) were distributed into the wells of 96-well clear bottom black microplates (07-200-567; Fisher Scientific) in 150 μL E3 before the addition of small molecules. Stock solutions of compounds were added directly to zebrafish in the wells of a 96 well plate (Corning 3631), mixed, and allowed to incubate for 1 h in the dark at 28.5° C. prior to behavioral evaluation in the behavioral assay. Ordering information: 1 (5533696; ChemBridge); 3 (5538408; ChemBridge).
Larvae in each of the wells were exposed to four 1 second flashes of light stimulus in the following order: 450-500 nm (WL1), 415-455 nm (WL2), 352-402 nm (WL3), white light (WL4), with a 5 second inter-stimulus interval. Digital video recording was performed for 5 seconds before the first light stimuli and continued throughout the stimulation sequence. Band pass filters (Semrock FF02-475/50, FF02-435/40, FF01-377/50) were used to restrict the excitation light to the indicated wavelengths. […] 290 frames of digital video were recorded per well at 10 FPS using an EMCCD camera (C9100; Hamamatsu) mounted on an inverted compound microscope (AxioObserver A1; Zeiss) with a NA 0.03 1.25× objective and a barrier with a 0.7 mm diameter opening to restrict light scattering to the sample. MetaMorph software (Molecular Devices) was used to control the execution of TTL signals and camera capture using the built-in stream acquisition with trigger function. Each video was saved for review. Light stimuli were generated with an ozone free 300-Watt xenon bulb housed in a Lambda LS illuminator (Sutter Instruments). A dichroic mirror (T510LPXRXT; Chroma) was used for appropriate excitation of samples and bright field acquisition. Schott longpass absorption glass (RG610; Chroma) was added in the transmitted light path to reduce unwanted excitation to the well and to provide sufficient light for video recording. All behavioral experiments were conducted at room temperature. […]
To analyze digital video recordings, custom MetaMorph software scripts were used to automatically threshold the video to identify the area of larvae in each frame. Threshold images of the frames after each light activation event were overlaid to calculate a new combined threshold area. The motion index was calculated as the percentage change between the threshold area in the frame right before light activation and the new combined threshold area. This motion index correlates with the overall amount of motion in the well.

Trpa1b mutant larvae = conditions: previously identified; cited from earlier work

For Cc1cc(/C=C2/SC(=S)NC2=O)c(C)n1-c1cccnc1 [optovin], the “suppression of response by DABCO” value [1] is listed as “completely suppress”, the “effect of DABCO on light-induced motion response” value [2] is listed as “abolished” and the “activity in Trpa1b mutant zebrafish” value (Trpa1b mutant larvae) is listed as “abolished”.
